One compound from patent US11400104B2, “Skeletal removal of bisphosphonates” (The Regents of the University of California, priority 2016, dated 2022) can be followed below.

“Also recorded” adds a separate entry of the source.

Data set [1] is described as follows: hydroxyapatite (HAP) binding affinity, relative retention times normalized to RIS. The following applies: FIG. 7. On the procedure:
FIG. 7 is a bar graph showing hydroxyapatite (HAP) binding affinity of Zoledronate (ZOL), ROX-RIS, 5-FAM-ZOL, and AF647-ZOL. Relative retention times were normalized to RIS.
Hydroxyapatite assays indicate that the FL-BPs generally retain substantial affinity for bone mineral that reflect the affinity of the BP component and to a lesser extent, the affinity of the conjugated fluorophore. Hydroxyapatite (Macro-Prep® Ceramic hydroxyapatite Type II […]) was obtained from Bio-Rad Laboratories, Inc. Hercules, Calif. Accurately weighed hydroxyapatite powder (1.4-1.6 mg) was suspended in a 4 mL clear vial containing the appropriate volume of assay buffer (0.05% (wt/vol) Tween20, 10 μM EDTA and 100 mM HEPES pH=7.4) for 3 hours. Hydroxyapatite was then incubated with increasing amounts of FAM-BP and ROX-BP (0, 25, 50, 100, 200, and 300 μM). Samples were gently shaken for 3 hours at 37° C. in appropriate volume of assay buffer (0.05% (wt/vol) Tween20, 10 μM EDTA and 100 mM HEPES pH=7.4). Subsequent to the equilibrium period, the vials were centrifuged at 10,000 rpm for 5 minutes to separate the solids and the supernatant. 0.3 mL of the supernatant was collected and the equilibrium solution concentration is measured by using Shimadzu UV-VIS spectrometer. For the calibration series, FL-BP probe standards were prepared by serial dilution from the stock solution with the same isotherm buffer to give the range from 0 to 400 μM. Calibration curves were constructed using standard solutions of the target FL-BPs. Fluorescent emission can also be used to calculate the binding parameters. Nonspecific binding was measured with a similar procedure in the absence of hydroxyapatite as control. Binding parameters (Kd and Bmax, represent the equilibrium dissociate constant and maximum number of binding sites, respectively) were calculated using the PRISM program (Graphpad, USA). The binding parameters of each compound was measured in 5 independent experiments. […]

For another data set, the system named is mouse maxilla. Description: intra-oral injection of AF647-ZOL into maxilla of mice pre-injected IV with FAM-ZOL, fluorescent biophotonics. In kind it is in vivo. Here is the method: FIG. 10 are representative images of mice maxilla. AF647-ZOL was orally injected into maxilla of mice pre-injected with 5-FAM-ZOL.
The mouse intra-oral injection protocol was established by using a Hamilton syringe with a 33-gauge needle. Under a surgical microscope, 2 μl solution was injected to the palatal gingiva of left first molar of mouse maxilla. After slow injection, the needle was left in the tissue for 3 minutes and then gently removed.
Using this method, 2 μl of 0 μM, 0.5 μM or 5.0 μM AF647-ZOL was injected to mouse maxillary oral mucosa to mice 6 days after retro-orbital IV injection of 100 μl of 50 μM FAM-ZOL. Mouse tissues were harvested 1 day after oral injection and maxillary bones were subjected to standardized fluorescent biophotonics image obtained using an excitation wavelength of 460 nm and a 515 nm filter (LAS3000, FUJIFILM Corp).

The subject of a further data set is mouse cranial bone. Description: cranial bone displacement: AF647-ZOL pre-adsorbed via IV, FAM-ZOL sub-periosteal injection. In kind it is in vivo. The following applies: IV injection; cryo-cross sections. Here is the method: FIG. 12A to FIG. 12C show the displacement and replacement of AF647-ZOL and 5-FAM-ZOL. FIG. 12A are fluorescent images of cranial bone. AF647-ZOL (50 μM) was pre-adsorbed on cranial bone via IV injection. 5-FAM-ZOL at the indicated doses was directly injected to the sub-periosteal space. […] The first bars of each set are for AF647-ZOL and the second bars of each set are for 5-FAM-ZOL. *, P<0.05 vs Veh by Dunnett's test.
Mice were pre-treated by 100 μl of 50 μM AF647-ZOL retro-orbital IV injection. Six days later, mice received sub-periosteal injection to cranial bone with 10 μl of 0 μM, 1 μM, 10 μM, or 50 μM FAM-ZOL. The cranial bone was harvested and soft tissues were removed. The fluorescent signals of AF647 and FAM were measured by standardized fluorescent biophotonics. The cranial bones were then prepared for cryosection. Cross-sections were made by the tape method and evaluated by confocal laser scanning microscopy.

Data set [2] deals with mouse femur trabecular bone. Description: micro CT evaluation of mouse femur trabecular structure (anti-resorptive function in vivo). As to conditions: IV 184 μM×100 μL; femurs 2 weeks after injection; FIG. 14. Here is the method:
FIG. 19A to FIG. 19C present evidence that certain alkylidene bisphosphonates can be used to displace active BPs in vivo in the mouse model. […] FIG. 19B outlines the protocol for the experiments using MHDP to treat C57B16 mice. An ONJ-like lesion was generated by ZOL IV injection into the mouse, followed by extraction of the maxillary first molar. One day prior to the tooth extraction, a group of mice received intra-oral injection of 2 μg MHDP and another group received IV injection of 100 μg MHDP. FIG. 19C presents images of the mouse maxilla.
This study determines the anti-resorptive function of FL-BP in vivo, as compared to ZOL. Female B6 mice were injected with 50 μM ZOL (n=6), 50 μM FL-BP (n=6) or 0.9% NaCl vehicle solution (control: n=6) via tail vein. Three weeks later, mice were euthanized and femur and L4/L5 were harvested. After fixed in 10% buffered formalin, bone samples were subjected to micro CT analysis. The anti-resorptive function were quantitatively established by the trabecular bone three-dimensional morphometry (e.g., BV/TV, Tb.N, Tb.Th, TbSp). FL-BPs with minimal or no pharmacological BP function are used.
Mice were IV injected with 0.9% NaCl (vehicle solution), ZOL (184 μM×100 μL=5.0 μg/animal) or AF647-ZOL (184 μM×100 μL=22.0 μg/animal) and femurs were harvested 2 weeks after injection. The micro CT data were compared.

For the next data set, the system named is mouse femurs. Briefly: AF647-ZOL signal in distant bone (femurs) in the BRONJ mouse model. In kind it is in vivo. On the procedure: AF647-ZOL was applied by intra-oral injection or IV injection 1 day prior to tooth extraction. FIG. 16B are images of mouse maxilla and the oral mucosa inflammation and swelling (white dotted lines, left and right panels) with various degrees of jawbone exposure (arrow) at the tooth extraction site of ZOL-treated mice (BRONJ control: n−4).
Mice received a bolus IV injection of ZOL (440 μg/Kg; 294 μM×100 μL=8.0 μg/animal) from retro-orbital venous plexus. […] The AF647-ZOL signal in distant bone was assessed in femurs.

Regarding `CC1(C)C(C=CC=CC=C2N(CCCS(=O)(=O)O)c3ccc(S(=O)(=O)O)cc3C2(C)CCCCCC(=O)NCC(O)C[n+]2ccn(CC(O)(P(=O)(O)O)P(=O)(O)O)c2)=[N+](CCCS(=O)(=O)O)c2ccc(S(=O)(=O)O)cc21` (centres unmarked) [AF647-ZOL], in data set [1], the “influence of the fluorophore on hydroxyapatite affinity” value was “small reduction”. The “AF647 signal at and around the injection site on the palatal bone” value in the data set with mouse maxilla (2 μl of 0, 0.5 or 5.0 μM intra-oral, harvested 1 day after) is listed as “dose dependent adsorption”. For the same compound, the “displacement of pre-adsorbed FAM-ZOL in maxilla” value in the data set on mouse maxilla (FAM-ZOL 100 μl of 50 μM IV 6 days before AF647-ZOL intra-oral injection, qualitative) was “pre-adsorbed FAM-ZOL was removed; also recorded: Reduction of FAM-ZOL signal was observed qualitatively”. Also, in the data set with mouse maxilla (intra-oral injection), the “systemic distribution to the distant skeletal system (femur)” value is on record as “did not result in systemic distribution to the distant skeletal system”. Besides, in the data set on mouse cranial bone, the “location of AF647-ZOL labeling in cranial bone” value is “external and internal bone surfaces, as well as trabecular surface”. For the same compound, the bone structural parameters entry in data set [2] is recorded as “did not change any of bone structural parameters”. Moreover, the “AF647-ZOL signal in femurs” value was “clear AF647-ZOL signal; also recorded: clearly observed” in the data set with mouse femurs (IV injection 500 μM×100 μL); “not and did not result in a detectable fluorescent signal” in the data set with mouse femurs (intra-oral injection 250 μM×2 μL).
